According to patent publication US20190022073A1, “PHARMACEUTICAL COMPOSITION COMPRISING RAPAMYCIN OR DERIVATIVE THEREOF” (NIPPON KAYAKU KABUSHIKI KAISHA, priority 2015, published 2019):

Assay: pH of the stabilizer (additive) in water/ethanol mixture, measured by pH meter MM-60R (TOA DKK)
Conditions: 5 mg/mL in water/EtOH=1:1 mixture
Protocol: The pH of the (B) component can be measured by preparing 50% (v/v) ethanol aqueous solution containing 5 mg/mL of the (B) component, and measuring pH using commercially available pH meter. For example, pH can be measured by using MM-60R (TOA DKK).

Compound | pH of the additive used as stabilizer
O=C([O-])CC(O)(CC(=O)[O-])C(=O)O.[Na+].[Na+] [disodium hydrogen citrate] | 6.3
O=C1O[C@H]([C@@H](O)CO)C([O-])=C1O.[Na+] [sodium ascorbate] | 8.4
